# Source: patent US20180258123A1, “Suppressors of Premature Termination Codons as Therapeutics and Methods for Their Use” (The University of British Columbia, priority 2015, published 2018)
# Key:
# [1] = cited from earlier work
# [2] = Toxicity observed in the in vivo read-through study; settings: 400 mg/kg intraperitoneal; mice sacrificed shortly after administration
# Experimental: Methods for FIG. 8: Two million NCI-H1299 human non-small cell lung carcinoma cells stably expressing a TP53 expression construct bearing the R213X (TGA) nonsense mutation were implanted subcutaneously on the lower back of immunocompromised NRG (NOD-Rag1^null IL2rg^null) mice. […] 48 hours after the last injection, the mice were sacrificed and the amounts of truncated p53 and full-length p53 were determined by western analysis. […] Vinculin was used as a protein loading control.
# [3] = system: HDQ-P1 cells, full-length p53; assay: p53 read-through assay with steroids (western blotting, FIG. 4); format: cell-based, human
# Experimental: HDQ-P1 cells were seeded at 100,000 cells per well of TC-treated 6-well plates. The next day, the medium was replaced with fresh medium containing compounds to be tested and were incubated for 48 to 96 h. The medium was removed by aspiration, cell monolayers were rinsed with 1 ml ice-cold PBS. Cells were lysed in 80 μl lysis buffer (20 mM Tris-HCl pH 7.5, 150 mM NaCl, 1 mM EDTA, 1 mM EGTA, 1% (v/v) Triton […], 2.5 mM sodium pyrophosphate, 1 mM beta-glycerophosphate supplemented with fresh 1 mM Na3VO4, 1 mM dithiothreitol and 1× complete protease inhibitor cocktail (Roche Molecular BiochemicalsTM)). Lysates were pre-cleared by centrifugation at 18,000 g for 15 min at 4° C. Supernatants were collected, protein was quantitated using the Bradford assay and lysates were adjusted to 1 mg/ml protein. Capillary electrophoresis and western analysis conditions were carried out with manufacturer's reagents according to the user manual (ProteinSimple WESTM). Briefly, 5.6 μl of cell lysate was mixed with 1.4 μl fluorescent master mix and heated at 95° C. for 5 min. The samples, blocking reagent, wash buffer, DO-1 p53 antibody (0.5 μg/ml) and vinculin antibody (1:2000, R&D clone 728526), secondary antibody and chemiluminescent substrate were dispensed into the microplate provided by the manufacturer. […] The data was analyzed with inbuilt CompassTM software (ProteinsimpleTM). […]
compound,measurement,setting,value
Gentamicin [reference compound],nephrotoxicity and ototoxicity,[1]; in vivo,nephrotoxic and ototoxic
same,toxicity,[2],induced acute toxicity
CN[C@@H]1[C@@H](O)[C@@H](O[C@@H]2[C@@H](O)[C@H](O[C@H]3O[C@H]([C@@H](C)N)CC[C@H]3N)[C@@H](N)C[C@H]2N)OC[C@]1(C)O [Gentamicin C2],nephrotoxicity of the major gentamicins,[1]; Kohlhepp S. J. et al. 1984,nephrotoxicity was caused mainly by C2
"CC(=O)O[C@]1(C(C)=O)CC[C@H]2[C@@H]3C[C@H](C)C4=CC(=O)CC[C@]4(C)[C@H]3CC[C@@]21C [Medroxy pro, Medroxyprogesterone acetate]",read-through activity of steroid alone,[3],no read-through activity
